Laboratory results: patent EP0162545A2, “Enhanced bioconversion processes” (BETZ EUROPE, INC., priority 1984, dated 1985)

Columns and labels:
[1] = BNS breakdown kinetics in deionized water, spectrophotometric at 320 nm; type: physicochemical
Description: BNS stock was composed of 10% BNS, 5% Triton X-114 and 85% carbitol acetate. BNS was diluted in deionized water to the appropriate 10X concentration desired. Breakdown kinetics were measured in a deionized H20/BNS system by spectrophotometric measurement at 320 nm and a BNS half life was determined to be 7 hours. Continuous and separate pumping of uncoupler was by a Masterflex 7552-10 peristalic pump (Cole Parmer, Chicago, IL) through silicon tubing lines into the bioreactor. Feed flow was split 90% organic feed, 10% BNS feed for total flow. New uncoupler feed was made up daily from the previously mentioned stock, since there was only 10% of the original BNS concentration left before the new daily solution of BNS feed was begun. BNS dose of 1, 2 and 5 ppm was based on the total bulk feed. Reservoir solutions were mixed constantly on a Fisher versamix magnetic stir plate at a speed of 0.4/1.0 to prevent settling out of chemical.

Klebsiella [2] = assay: CO2 evolution from 14C-D-glucose, second series; type: cell-based; set-up: Cumulative Growth Index Reading (CO2 Blowoff) 0 HR: scale not given here
Description: Experiments to look at the above conclusions in depth were performed. In these experiments, cultures of Klebsiella were challenged with various concentrations of BNS and the effects on C02 evolution from glucose, viability, TOC (Total Organic Carbon), TIC (Total Inorganic Carbon) production, removal, and DO (Dissolved Oxygen) removal were determined. Concentrations of BNS from 0.05 to 100 µg/mL were used. […] CO2 evolution decreased after 5 gg/mL. […] The viability dropped off after that with 99% inhibition at concentrations somewhere between 10 - 20 µg/mL. Organic carbon removal gave the most puzzling pattern. […] CO2 was produced, however, as reflected by the C02 blowoff experiments and the TIC data. The organic carbon being oxidized (removed) must have been cancelled out by an organic carbon addition caused by limited bacterial lysis. This phenomenon was investigated again. […] It appeared that 5 ppm BNS would be the maximum concentration that could be used for the desired effect, with the majority of favorable results occurring in the 0.05 - 2 ppm range.
The experiments coordinating the measurements of C02 evolution, TOC reduction, viable count, and dissolved oxygen (DO) reduction were performed as follows: C02 evolution by Klebsiella was measured as described previously using a narrowed set of BNS concentrations. At the same time, Klebsiella cells grown overnight in nutrient broth were standardized into an inoculum of 250 Klett units. These cells were used to inoculate 19 mL quantities of fresh nutrient broth (1 mL inoculum) in baffled shake flasks. These shake flasks were placed into water bath shakers at 37°C and allowed to shake for 5 hours. Concentrations of BNS equivalent to the C02 blowoff experiment were added to the flasks at the beginning of the experiment. Controls containing no BNS were included for comparisons. Total organic carbon measurements were taken after 5 hours incubation. Viable counts were done at 1 hour, 3 hours, and 5 hours. A parallel experiment was performed using the same setup except that after BNS additions, the flasks were shaken for 30 minutes and then held stationary. DO measurements were taken at 5 hours incubation with the use of a YSI Model 54A oxygen meter.

Klebsiella [3] = assay: microbe, parasite or virus in culture; type: cell-based
Description: These patterns were the results of Klebsiella cultures having been grown on glucose (^14C-label). In nature, and in waste treatment facilities, many organic carbon compounds, both simple and complex, would be available for degradation. The known uncouplers and BNS were tested for their ability to increase C02 evolution from cultures exposed to the common substrates lactate, glycine, glycerol, and a denatured protein mixture. […] This was expected in the case of glycine but it was thought that a more complex protein might be degraded and portions used for some energyproduction. It was hoped that these compounds might be a more representative group (more abundant in waste treatment) than simple sugars for determining the extent of activity of BNS. […] Lactate, a common intermediate in microbial metabolism, and a compound which would normally be used as an oxidizable substrate for running the cytochrome chain, gave a more representative response. BNS treated cultures gave increased C02 blowoff (an increase as high as 130% at 5 µg/mL) as did both known uncouplers. […] When glycerol was used as the labeled substrate, BNS treated cultures gave increased C02 at concentrations up to 5 µg/mL.
The procedure used for determining the CO2 evolution was similar to the procedure described previously. Cells having been grown overnight in MSM and glucose were centrifuged and resuspended in MSM + glucose (cold) and used as inoculum. No other cold carbon source (unlabeled) was added. ^14C-labeled substrates (lactate, glycerol, etc.) obtained from New England Nuclear were used and supplied the radiolabeled carbon for the detection of ^14CO2. BNS was utilized in concentrations of 0.5 - 10 µg/mL. Fixed concentrations of 5 µg/mL CCCP and DNP were included for comparative purposes. The following data were obtained in these experiments.

O=[N+]([O-])C(Br)=Cc1ccccc1 [BNS, beta-bromo-beta-nitrostyrene]
half-life ([1]; deionized water, deionized H20/BNS system, 320 nm): 7 h
original BNS concentration left ([1]; diluted feed in deionized water, before the new daily solution): 10%
Cumulative Growth Index Reading (CO2 Blowoff) 0 HR (Klebsiella [2]; BNS 0.05 μg/mL): 2
Cumulative Growth Index Reading (CO2 Blowoff) 0.5 HR (Klebsiella [2]; BNS 0.05 μg/mL): 762
Cumulative Growth Index Reading (CO2 Blowoff) 1 HR (Klebsiella [2]; BNS 0.05 μg/mL): 1,082
Cumulative Growth Index Reading (CO2 Blowoff) 3 HR (Klebsiella [2]; BNS 0.05 μg/mL): 1,642
Cumulative Growth Index Reading (CO2 Blowoff) 5 HR (Klebsiella [2]; BNS 0.05 μg/mL): 2,012
Cumulative Growth Index Reading (CO2 Blowoff) 0 HR (Klebsiella [2]; BNS 0.1 μg/mL): 2
Cumulative Growth Index Reading (CO2 Blowoff) 0.5 HR (Klebsiella [2]; BNS 0.1 μg/mL): 877
Cumulative Growth Index Reading (CO2 Blowoff) 1 HR (Klebsiella [2]; BNS 0.1 μg/mL): 1,197
Cumulative Growth Index Reading (CO2 Blowoff) 3 HR (Klebsiella [2]; BNS 0.1 μg/mL): 1,797
Cumulative Growth Index Reading (CO2 Blowoff) 5 HR (Klebsiella [2]; BNS 0.1 μg/mL): 2,197
Cumulative Growth Index Reading (CO2 Blowoff) 0 HR (Klebsiella [2]; BNS 0.5 μg/mL): 1
Cumulative Growth Index Reading (CO2 Blowoff) 0.5 HR (Klebsiella [2]; BNS 0.5 μg/mL): 801
Cumulative Growth Index Reading (CO2 Blowoff) 1 HR (Klebsiella [2]; BNS 0.5 μg/mL): 1,121
Cumulative Growth Index Reading (CO2 Blowoff) 3 HR (Klebsiella [2]; BNS 0.5 μg/mL): 1,761
Cumulative Growth Index Reading (CO2 Blowoff) 5 HR (Klebsiella [2]; BNS 0.5 μg/mL): 2,201
Cumulative Growth Index Reading (CO2 Blowoff) 0 HR (Klebsiella [2]; BNS 1.0 μg/mL): 1
Cumulative Growth Index Reading (CO2 Blowoff) 0.5 HR (Klebsiella [2]; BNS 1.0 μg/mL): 761
Cumulative Growth Index Reading (CO2 Blowoff) 1 HR (Klebsiella [2]; BNS 1.0 μg/mL): 1,091
Cumulative Growth Index Reading (CO2 Blowoff) 3 HR (Klebsiella [2]; BNS 1.0 μg/mL): 1,741
Cumulative Growth Index Reading (CO2 Blowoff) 5 HR (Klebsiella [2]; BNS 1.0 μg/mL): 2,201
Cumulative Growth Index Reading (CO2 Blowoff) 0 HR (Klebsiella [2]; BNS 2 μg/mL): 2
Cumulative Growth Index Reading (CO2 Blowoff) 0.5 HR (Klebsiella [2]; BNS 2 μg/mL): 752
Cumulative Growth Index Reading (CO2 Blowoff) 1 HR (Klebsiella [2]; BNS 2 μg/mL): 1,072
Cumulative Growth Index Reading (CO2 Blowoff) 3 HR (Klebsiella [2]; BNS 2 μg/mL): 1,732
Cumulative Growth Index Reading (CO2 Blowoff) 5 HR (Klebsiella [2]; BNS 2 μg/mL): 2,212
Cumulative Growth Index Reading (CO2 Blowoff) 0 HR (Klebsiella [2]; BNS 5 μg/mL): 0
Cumulative Growth Index Reading (CO2 Blowoff) 0.5 HR (Klebsiella [2]; BNS 5 μg/mL): 750
Cumulative Growth Index Reading (CO2 Blowoff) 1 HR (Klebsiella [2]; BNS 5 μg/mL): 1,032
Cumulative Growth Index Reading (CO2 Blowoff) 3 HR (Klebsiella [2]; BNS 5 μg/mL): 1,570
Cumulative Growth Index Reading (CO2 Blowoff) 5 HR (Klebsiella [2]; BNS 5 μg/mL): 1,980
Cumulative Growth Index Reading (CO2 Blowoff) 0 HR (Klebsiella [2]; BNS 10 μg/mL): 2
Cumulative Growth Index Reading (CO2 Blowoff) 0.5 HR (Klebsiella [2]; BNS 10 μg/mL): 682
Cumulative Growth Index Reading (CO2 Blowoff) 1 HR (Klebsiella [2]; BNS 10 μg/mL): 952
Cumulative Growth Index Reading (CO2 Blowoff) 3 HR (Klebsiella [2]; BNS 10 μg/mL): 1,392
Cumulative Growth Index Reading (CO2 Blowoff) 5 HR (Klebsiella [2]; BNS 10 μg/mL): 1,662
Cumulative Growth Index Reading (CO2 Blowoff) 0 HR (Klebsiella [2]; BNS 20 μg/mL): 1
Cumulative Growth Index Reading (CO2 Blowoff) 0.5 HR (Klebsiella [2]; BNS 20 μg/mL): 451
Cumulative Growth Index Reading (CO2 Blowoff) 1 HR (Klebsiella [2]; BNS 20 μg/mL): 616
Cumulative Growth Index Reading (CO2 Blowoff) 3 HR (Klebsiella [2]; BNS 20 μg/mL): 916
Cumulative Growth Index Reading (CO2 Blowoff) 5 HR (Klebsiella [2]; BNS 20 μg/mL): 1,101
Cumulative Growth Index Reading (CO2 Blowoff) 0 HR (Klebsiella [2]; BNS 50 μg/mL): 1
Cumulative Growth Index Reading (CO2 Blowoff) 0.5 HR (Klebsiella [2]; BNS 50 μg/mL): 271
Cumulative Growth Index Reading (CO2 Blowoff) 1 HR (Klebsiella [2]; BNS 50 μg/mL): 381
Cumulative Growth Index Reading (CO2 Blowoff) 3 HR (Klebsiella [2]; BNS 50 μg/mL): 651
Cumulative Growth Index Reading (CO2 Blowoff) 5 HR (Klebsiella [2]; BNS 50 μg/mL): 876
Cumulative Growth Index Reading (CO2 Blowoff) 0 HR (Klebsiella [2]; BNS 100 μg/mL): 2
Cumulative Growth Index Reading (CO2 Blowoff) 0.5 HR (Klebsiella [2]; BNS 100 μg/mL): 97
Cumulative Growth Index Reading (CO2 Blowoff) 1 HR (Klebsiella [2]; BNS 100 μg/mL): 202
Cumulative Growth Index Reading (CO2 Blowoff) 3 HR (Klebsiella [2]; BNS 100 μg/mL): 287
Cumulative Growth Index Reading (CO2 Blowoff) 5 HR (Klebsiella [2]; BNS 100 μg/mL): 365
activation at 5 µg/mL (Klebsiella [3]; Klebsiella, 14C-lactate as labeled substrate, 5 µg/mL, read-out: increase in C02 blowoff): 130%
concentrations giving increased C02 (Klebsiella [3]; glycerol as the labeled substrate): up to 5 µg/mL
effect on CO2 evolution (Klebsiella [3]; glycine as the labeled substrate): either no effect or a toxic effect
